What all share (assay): NCI anticancer screen, dose series, 48 h
For assay [1], the system named is HL-60(TB) leukemia.
For assay [2], the system named is HT29 colon.
Assay [3] deals with IGROV1 ovarian.
In assay [4] the test system is NCI-H460 lung.
The test system of assay [5] is OVCAR-3 ovarian.
In assay [6] the test system is OVCAR-8 ovarian.
The test system of assay [7] is PC-3 prostate.
Assay [8] has as its system RPMI-8226 leukemia.
The test system of assay [9] is SF-295 CNS.
In assay [10] the test system is SK-MEL-2 melanoma.

Structures are written as SMILES.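 48-hour exposure; five concentrations; linearly interpolated endpoints. GI50 is the concentration that inhibits growth by half. TGI is the concentration that stops growth completely.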

With `COc1cc2ncnc(-n3ncc4cc(NC(=O)Nc5ccccc5)ccc43)c2cc1OC`, the GI50 in assay [1] was 1.57 µM; in assay [2] it was 0.615 µM; in [3], 0.427 µM; in assay [4], 0.706 µM; in assay [5], 2.08 µM; in assay [6], 5.17 µM. Moreover, the GI50 in assay [7] is 1.09 µM; in [8], 0.934 µM; in assay [9], 0.73 µM; in assay [10], 1.34 µM. Besides, the TGI in assay [1] was 4.52 µM; in [2], 10.9 µM; in [3] it was 4.62 µM; in assay [4], 16.4 µM; in [5], 13.1 µM; in assay [6], 28.3 µM. Moreover, the TGI in assay [7] is 3.36 µM; in assay [8], 12 µM; in assay [9], 5.87 µM; in [10] it was 3.51 µM.

Turning to `CC(C)c1ccc(-c2cc(-c3cn[nH]c3-c3ccccn3)ccn2)cc1`, the GI50 in assay [1] was 11.4 µM; in assay [2], 6.92 µM; in assay [3], greater than 23.3 µM; in assay [4], 7.64 µM; in [5], 8.4 µM; in assay [6], 9.57 µM. Also, the GI50 in assay [7] is 9 µM; in assay [8], 11.9 µM; in assay [9] it was 7.68 µM; in assay [10] it was 9.52 µM. The TGI is greater than 25 µM in assay [1]; greater than 19.6 µM in assay [2]; greater than 25 µM in [3]; greater than 25 µM in assay [4]; greater than 25 µM in [5]; greater than 25 µM in assay [6]. The TGI was greater than 25 µM in assay [7], greater than 25 µM in assay [8], greater than 19.7 µM in assay [9] and greater than 25 µM in [10].

On to `C=CCCCCC/C=C\[C@@H](O)C#CC#C/C=C/CO`, for which the GI50 is 11.2 µM in assay [1]; greater than 100 µM in assay [2]; 23.5 µM in assay [3]; greater than 100 µM in [4]; 41.7 µM in assay [5]; 25.1 µM in [6]. For the same compound, the GI50 is 28 µM in [7], 16.3 µM in assay [8], greater than 100 µM in assay [9] and greater than 100 µM in assay [10]. In addition, the TGI was 27.8 µM in [1]; greater than 100 µM in assay [2]; greater than 100 µM in assay [3]; greater than 100 µM in assay [4]; greater than 100 µM in [5]; 68.9 µM in [6]. Also, the TGI was greater than 100 µM in assay [7], 38.4 µM in assay [8], greater than 100 µM in [9] and greater than 100 µM in assay [10].
